The IC50 is the point on the concentration scale where inhibition reaches its midpoint. The Kd is the constant that tells how readily two partners part at equilibrium. By kon is commonly meant the rate constant with which the complex forms.

Where “and” joins values, the source holds several entries; their conditions need not be identical. Identical values can stand only once. Like-named read-outs stand apart in the source and are kept apart here.

The target in assay [1] is T1, SARS-CoV-2 Mac1 (Severe acute respiratory syndrome coronavirus 2, UniProt P0DTD1). In words: biochemical. To be noted: IC50. It is filed as binding.
For assay [2], the target named is T1, SARS-CoV-2 Mac1. In words: biochemical. The format is binding. To be noted: for koff: read-out: kdis.
The target of assay [3] is T2, CHIKV Mac (Chikungunya virus, UniProt Q8JUX6). In words: biochemical. It is filed as binding.
T2 sequence (Q8JUX6 1334-1493 limits assumed): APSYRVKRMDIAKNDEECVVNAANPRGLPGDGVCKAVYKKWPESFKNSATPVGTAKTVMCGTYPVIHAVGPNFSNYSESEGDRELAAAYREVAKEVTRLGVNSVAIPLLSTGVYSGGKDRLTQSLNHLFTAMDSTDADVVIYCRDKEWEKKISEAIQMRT
Assay [4] deals with T3, MERS-CoV Mac1 (Middle East respiratory syndrome-related coronavirus, UniProt K9N7C7). In words: biochemical. It is filed as binding.
T3 sequence (K9N7C7 1110-1276 limits assumed): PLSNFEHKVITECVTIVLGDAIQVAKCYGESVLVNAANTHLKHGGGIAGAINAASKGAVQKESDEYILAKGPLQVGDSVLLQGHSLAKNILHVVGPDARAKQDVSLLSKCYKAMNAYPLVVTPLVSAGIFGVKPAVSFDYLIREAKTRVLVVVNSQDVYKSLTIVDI
In assay [5] the target is T2, CHIKV Mac. In words: biochemical. The format is binding. To be noted: for koff: read-out: kdis.
The target in another assay is VEEV Mac (Venezuelan equine encephalitis virus, UniProt P27282). In words: biochemical. To be noted: for koff: read-out: kdis. It is filed as binding.
VEEV Mac, sequence (P27282 1330-1489 limits assumed): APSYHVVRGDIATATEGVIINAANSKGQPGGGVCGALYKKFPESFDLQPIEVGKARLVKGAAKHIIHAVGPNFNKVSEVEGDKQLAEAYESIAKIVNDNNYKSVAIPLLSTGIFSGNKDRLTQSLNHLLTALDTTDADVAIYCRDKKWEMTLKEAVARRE
For assay [6], the target named is T3, MERS-CoV Mac1. In words: biochemical. It is filed as binding. To be noted: for koff: read-out: kdis.
Assay [7] has as its target T1, SARS-CoV-2 Mac1. To be noted: cited from earlier work.
For assay [8], the target named is T1, SARS-CoV-2 Mac1. To be noted: cited from earlier work. This is another data set of the same source.
The target of assay [9] is T1, SARS-CoV-2 Mac1. To be noted: cited from earlier work. This is another data set of the same source.

In the case of `Nc1ncnc2c1ncn2[C@@H]1O[C@H](COP(=O)(O)OP(=O)(O)OC[C@H]2O[C@H](n3cc(COCCOCCOCCOCCNC(=O)CCCC[C@@H]4SC[C@@H]5NC(=O)N[C@@H]54)nn3)[C@H](O)[C@@H]2O)[C@@H](O)[C@H]1O` [biotin-ADPr], the IC50 against SARS-CoV-2 Mac1 [1] was 3500 nM; against CHIKV Mac [3], 22200 nM; on MERS-CoV Mac1 [4], 6800 nM. In addition, the Kd at SARS-CoV-2 Mac1 [2] worked out at 19600 nM; on CHIKV Mac [5] it was 5300 ± 200 nM; on MERS-CoV Mac1 [6], 2100 ± 100 nM. Further, the kon turned out to be 53000 ± 3000 M⁻¹ s⁻¹ on SARS-CoV-2 Mac1 [2], 120000 ± 3000 M⁻¹ s⁻¹ on CHIKV Mac [5], 140000 ± 8000 M⁻¹ s⁻¹ at VEEV Mac and 320000 ± 10000 M⁻¹ s⁻¹ on MERS-CoV Mac1 [6]. For the same compound, the koff was found to be 1 ± 0.05 s⁻¹ at SARS-CoV-2 Mac1 [2], 0.65 ± 0.02 s⁻¹ at CHIKV Mac [5], 0.79 ± 0.04 s⁻¹ at VEEV Mac and 0.7 ± 0.03 s⁻¹ at MERS-CoV Mac1 [6].

With `N#C[C@@]1(c2ccc3c(N)ncnn23)O[C@H](COP(=O)(O)OP(=O)(O)OC[C@H]2O[C@H](n3cc(COCCOCCOCCOCCNC(=O)CCCC[C@@H]4SC[C@@H]5NC(=O)N[C@@H]54)nn3)[C@H](O)[C@@H]2O)[C@@H](O)[C@H]1O` [biotin-NDPr], the figures for the 50% inhibitory concentration (IC50) at SARS-CoV-2 Mac1 [1], on CHIKV Mac [3] and against MERS-CoV Mac1 [4] were 57 nM, 950 nM and 1200 nM, respectively. Moreover, the Kd on SARS-CoV-2 Mac1 [2] was 280 ± 10 nM; on CHIKV Mac [5], 331 nM and 330 nM; at MERS-CoV Mac1 [6], 210 ± 10 nM. For the same compound, at SARS-CoV-2 Mac1 [2], the “fold more potent than biotin-ADPr based on Kd” value was around 70 fold. The kon was 310000 ± 5000 M⁻¹ s⁻¹ on SARS-CoV-2 Mac1 [2], 180000 ± 4000 M⁻¹ s⁻¹ at CHIKV Mac [5], 580000 ± 6000 M⁻¹ s⁻¹ at VEEV Mac and 1.3e+06 ± 50000 M⁻¹ s⁻¹ at MERS-CoV Mac1 [6]. Also, the koff on SARS-CoV-2 Mac1 [2] amounted to 0.085 ± 0.001 s⁻¹; on CHIKV Mac [5], 0.06 ± 0.0009 s⁻¹; at VEEV Mac, 0.076 ± 0.0008 s⁻¹; on MERS-CoV Mac1 [6], 0.27 ± 0.01 s⁻¹. The “fold stronger than biotin-ADPr” value on CHIKV Mac [5] was around 15 fold.

Take `Nc1ncnc2c1ncn2[C@@H]1O[C@H](COP(=O)(O)OP(=O)(O)OC[C@H]2O[C@H](Oc3ccc(Cn4cc(COCCOCCOCCOCCNC(=O)CCCC[C@@H]5SC[C@@H]6NC(=O)N[C@@H]65)nn4)cc3)[C@H](O)[C@@H]2O)[C@@H](O)[C@H]1O` [biotin-Ph-ADPr]: the figures for the IC50 against SARS-CoV-2 Mac1 [1], against CHIKV Mac [3] and against MERS-CoV Mac1 [4] were 130 nM, above 10000 nM and 310 nM, respectively. Moreover, the figures for the Kd at SARS-CoV-2 Mac1 [2], at CHIKV Mac [5] and at MERS-CoV Mac1 [6] were 420 ± 10 nM, 6200 ± 200 nM and 100 ± 4 nM, respectively. Moreover, the “fold more potent than biotin-ADPr based on Kd” value at SARS-CoV-2 Mac1 [2] was around 50 fold. Further, the kon at SARS-CoV-2 Mac1 [2] came out at 270000 ± 5000 M⁻¹ s⁻¹; on CHIKV Mac [5], 19000 ± 500 M⁻¹ s⁻¹; at VEEV Mac, 520000 ± 6000 M⁻¹ s⁻¹; on MERS-CoV Mac1 [6] it was 1.1e+06 ± 30000 M⁻¹ s⁻¹. Also, the koff at SARS-CoV-2 Mac1 [2] came to 0.11 ± 0.002 s⁻¹; at CHIKV Mac [5], 0.12 ± 0.002 s⁻¹; at VEEV Mac it was 0.083 ± 0.0008 s⁻¹; on MERS-CoV Mac1 [6], 0.11 ± 0.003 s⁻¹. For the same compound, the “fold decrease in Kd compared to biotin-ADPr” value (“fold decrease in Kd” for short) on VEEV Mac is reported as 30 fold; on MERS-CoV Mac1 [6], 20 fold.

In turn, `N#C[C@@]1(c2ccc3c(N)ncnn23)O[C@H](COP(=O)(O)OP(=O)(O)OC[C@H]2O[C@H](Oc3ccc(Cn4cc(COCCOCCOCCOCCNC(=O)CCCC[C@@H]5SC[C@@H]6NC(=O)N[C@@H]65)nn4)cc3)[C@H](O)[C@@H]2O)[C@@H](O)[C@H]1O` [biotin-Ph-NDPr] came in with an IC50 against SARS-CoV-2 Mac1 [1] of 11 nM. At SARS-CoV-2 Mac1 [2], the Kd was 24 nM, the “fold more potent than biotin-ADPr based on Kd” value is around 1000 fold, the “kdis fold smaller than that of biotin-ADPr” value was “more than 100 fold” and the kon came out at 300000 ± 3000 M⁻¹ s⁻¹. Further, the koff on SARS-CoV-2 Mac1 [2] amounted to 0.0071 s⁻¹. For the same compound, the IC50 against CHIKV Mac [3] is 860 nM. The IC50 against MERS-CoV Mac1 [4] was determined as 100 nM. At CHIKV Mac [5], the kon came to 190000 ± 6000 M⁻¹ s⁻¹, binding was characterised by a dissociation constant (Kd) of 570 ± 20 nM and the koff was found to be 0.11 ± 0.003 s⁻¹. Moreover, at VEEV Mac, the “fold decrease in Kd” value is listed as 400 fold, the kon was found to be 820000 ± 7000 M⁻¹ s⁻¹ and the koff was determined as 0.014 ± 6e-05 s⁻¹. In addition, on MERS-CoV Mac1 [6], the “fold decrease in Kd” value is around 100 fold; the kon was found to be 1.8e+06 ± 10000 M⁻¹ s⁻¹; the Kd is 17.2 nM and 17 nM; the koff was found to be 0.031 ± 0.0002 s⁻¹.

Take `O=C(O)[C@H](Cc1c[nH]c2ccccc12)Nc1ncnc2[nH]ccc12` [compound 15c]: the IC50 on SARS-CoV-2 Mac1 [7] is 6100 nM.

As to `COC(=O)c1c(NC(=O)[C@@H]2CCC[C@@H](C(=O)O)C2)sc2c1CCCCCC2` [compound 27], the concentration for half-maximal inhibition (IC50) at SARS-CoV-2 Mac1 [8] is 2100 nM.

Consider `Nc1ncnc2c1ncn2C1OC(COP(=O)(O)OP(=O)(O)OCC2OC(Oc3ccc([N+](=O)[O-])cc3)C(O)C2O)C(O)C1O` (stereo not drawn) [pNP-ADPr], for which, at SARS-CoV-2 Mac1 [9], the IC50 is 370 nM and the “fold more potent than ADPr” value is reported as above 20 fold.

Source of the values: PMC11106745 (ACS Chemical Biology, 2024).
